Results on eleven molecules are retold here after US9440969B2, “Compounds and methods for kinase modulation, and indications therefor” (PLEXXIKON INC., priority 2009, dated 2016).

Assay [1] addresses B-Raf V600E (Homo sapiens, UniProt P15056, V600E). Description: B-Raf V600E kinase activity assay (AlphaScreen, biotin-MEK1 substrate). The following applies: 100 μM ATP, 100 nM biotin-MEK1, 45 minutes at room temperature, read-out: Biochemical activity (IC50 μM) V600E. Summed up:
(§1)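 Each Raf enzyme (0.1 ng) phosphorylates 100 nM biotin-MEK1 in pH 7.0 HEPES with Mg2+/Mn2+, 100 μM ATP final, 45 min at room temperature. Phospho-MEK1/2 antibody with AlphaScreen beads is read after 3 h. IC50 comes from an 8-point dilution series.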
On the technique in general: Alpha assays give light when donor and acceptor beads are brought close together.

Assay [2] concerns the target B-Raf (Homo sapiens, UniProt P15056). Description: B-Raf kinase activity assay (AlphaScreen, biotin-MEK1 substrate). The following applies: 100 μM ATP, 100 nM biotin-MEK1, 45 minutes at room temperature; read-out: Biochemical activity (IC50 μM) B-Raf. Summed up: as §1
The subject of assay [3] is COLO205 colon adenocarcinoma (B-Raf V600E mutation). The assay can be described thus: COLO205 cell growth inhibition (ATPlite luminescence). In kind it is cell-based. As to conditions: Homo sapiens, COLO 205, 72 h, COLO205 cells, incubated 3 days with compound. Here is the method:
Compounds are assessed in a variety of cell based assays. For example human cell lines with B-Raf V600E mutation (A375 melanoma, SKMEL3 melanoma, and COLO205 colon adenocarcinoma), as well as tumorigenic cell lines with wild-type B-RAF (SW620 colon adenocarcinoma) or with Ras mutations (SKMEL2 melanoma and IPC298 melanoma). Similar assays may be used to assess additional tumorigenic cell lines with Ras mutations, including, but not limited to, M202, M207, M243, M244, M296, S117, HCT116, HCT15, DLD1, MiaPaCa, A549, NCI-H23, NCI-H460, HOP62, MDA-MB231, Hs-578T, HL60, MOLT-4, and CCRF-CEM.
On day 1, cells are counted, then centrifuged in a conical tube for 5 minutes at 1000 rpm. The supernatant is removed and cells are re-suspended as follows: • SW620 (ATCC catalog #CCL-27): resuspend in Leibovitz's L-15 medium, 2 mM L-glutamine, 10% fetal bovine serum to 6×10^4 cells/mL. • A375 (ATCC catalog #CRL-1619): resuspend in Dulbecco's modified Eagle's medium, 4 mM L-glutamine, 4.5 g/L D-glucose, 10% fetal bovine serum to 6×10^4 cells/mL. • COLO205 (ATCC catalog #CCL-222): resuspend in RPMI 1640, 2 mM L-glutamine, 1.5 g/L sodium bicarbonate, 4.5 g/L D-glucose, 10 mM HEPES, 1.0 mM sodium pyruvate, 10% fetal bovine serum to 6×10^4 cells/mL. • SKMEL2 (ATCC catalog #HTB-68): resuspend in Minimum Eagle essential medium, 2 mM L-glutamine, 1.5 g/L sodium bicarbonate, 0.1 mM non-essential amino acids, 1.0 mM sodium pyruvate, 10% fetal bovine serum to 6×10^4 cells/mL. • SKMEL3 (ATCC catalog #HTB-69): resuspend in McCoy's 5A medium, 1.5 mM L-glutamine, 15% fetal bovine serum to 6×10^4 cells/mL. • IPC298 (DSMZ catalog #ACC 251): resuspend in RPMI 1640, 2 mM L-glutamine, 10% fetal bovine serum to 6×10^4 cells/mL.
The cells are plated, 50 μL in each well of a 96-well dish (Corning 3610) and incubated at 37° C. in 5% CO2 overnight, cells plated to a final concentration of cells as follows:
On day 2, compound at a maximum concentration of 5 mM is serially diluted 1:3 (e.g. 10 μL with 30 μL dimethyl sulfoxide) for a total of 8 point titration with DMSO as a control. A 1 μL aliquot of each dilution point and control is added to 249 μL growth media and 50 μL is added to a well containing cells, providing 10 μM compound at the maximum concentration point. The cells are incubated for 3 days at 37° C. in 5% CO2.
On day 5, ATPlite 1 step Luminescence Assay System (Perkin Elmer #6016739) is brought to room temperature along with the cell cultures. ATPlite is added 25 μL to each well, shake for 2 minutes, and the cells are incubated at room temperature for 10 minutes, then luminescence is read on Safire reader. The measured luminescence correlates directly with cell number, such that the reading as a function of compound concentration is used to determine the IC50 value.
It is understood that the results of these assays may vary as assay conditions are varied. Inhibition levels determined under the conditions described herein represent a relative activity for the compounds tested under the specific conditions employed. The cell based assays are likely to show variability due to the complexity of the system and the sensitivity thereof to any changes in the assay conditions. […] Results for compounds that are tested and show substantially no inhibition below the highest tested concentration are represented as “-” in the tables below. In some instances, the compounds were not tested in all of the assays, or assay results were not valid, as indicated by NA in the tables below.
Background: In ATP-based viability assays light output follows the ATP content of the culture.

The target in assay [4] is c-Raf-1 (Homo sapiens, UniProt P04049). The assay can be described thus: c-Raf-1 kinase activity assay (AlphaScreen, biotin-MEK1 substrate). As to conditions: 100 μM ATP, 100 nM biotin-MEK1, 45 minutes at room temperature; read-out: Biochemical activity (IC50 μM) c-Raf-1. As to the method:
Assays for biochemical and cell based activity are known in the art, for example, as described in PCT publication WO 2007/002433, the disclosure of which is hereby incorporated by reference as it relates to such assays. For example, the biochemical activity IC50 values are determined with respect to inhibition of B-Raf kinase activity, c-Raf-1 kinase activity, or B-Raf V600E kinase activity, where inhibition of phosphorylation of a peptide substrate is measured as a function of compound concentration. Compounds to be tested are diluted in dimethyl sulfoxide to a concentration of 0.1 mM. These are serially diluted 15 μL into 30 μL of dimethyl sulfoxide seven times in 96 well plates for a total of 8 dilution points, and for each dilution point 1 μL is added to a well of an assay plate. Plates are prepared such that each well in a 384 well plate contains 1 μL of compound in 10 μL, volume with 0.1 ng Raf enzyme (i.e. any of B-Raf, c-Raf-1 or B-Raf V600E, Upstate Biotechnology or prepared by methods known to one of skill in the art), 50 mM HEPES, pH 7.0, 50 mM NaCl, 2 mM MgCl2, 1 mM MnCl2, 0.01% Tween-20, 1 mM DTT, and 100 nM biotin-MEK1 as substrate. The reaction is started with addition of 10 μL of 200 μM ATP (i.e. final 100 μM ATP). After incubation of the kinase reaction for 45 minutes at room temperature, 5 μL/well of Stop Solution is added (25 mM Hepes pH 7.5, 100 mM EDTA, 0.01% BSA with donor beads (Streptavidin coated beads, Perkin Elmer), acceptor beads (Protein A coated, Perkin Elmer), and anti phosphor MEK1/2 antibody (CellSignal), each at final concentration 10 μg/mL). The plates are incubated for 3 hours at room temperature and read on Envision reader (Perkin Elmer). Phosphorylation of Mek1 results in binding of the anti-phosphor-MEK1/2 antibody and association of the donor and acceptor beads such that signal correlates with kinase activity. The signal vs. compound concentration is used to determine the IC50.

SMILES strings stand for the structures. Bounds are passed on as bounds.

Sequence of B-Raf (P15056 whole entry): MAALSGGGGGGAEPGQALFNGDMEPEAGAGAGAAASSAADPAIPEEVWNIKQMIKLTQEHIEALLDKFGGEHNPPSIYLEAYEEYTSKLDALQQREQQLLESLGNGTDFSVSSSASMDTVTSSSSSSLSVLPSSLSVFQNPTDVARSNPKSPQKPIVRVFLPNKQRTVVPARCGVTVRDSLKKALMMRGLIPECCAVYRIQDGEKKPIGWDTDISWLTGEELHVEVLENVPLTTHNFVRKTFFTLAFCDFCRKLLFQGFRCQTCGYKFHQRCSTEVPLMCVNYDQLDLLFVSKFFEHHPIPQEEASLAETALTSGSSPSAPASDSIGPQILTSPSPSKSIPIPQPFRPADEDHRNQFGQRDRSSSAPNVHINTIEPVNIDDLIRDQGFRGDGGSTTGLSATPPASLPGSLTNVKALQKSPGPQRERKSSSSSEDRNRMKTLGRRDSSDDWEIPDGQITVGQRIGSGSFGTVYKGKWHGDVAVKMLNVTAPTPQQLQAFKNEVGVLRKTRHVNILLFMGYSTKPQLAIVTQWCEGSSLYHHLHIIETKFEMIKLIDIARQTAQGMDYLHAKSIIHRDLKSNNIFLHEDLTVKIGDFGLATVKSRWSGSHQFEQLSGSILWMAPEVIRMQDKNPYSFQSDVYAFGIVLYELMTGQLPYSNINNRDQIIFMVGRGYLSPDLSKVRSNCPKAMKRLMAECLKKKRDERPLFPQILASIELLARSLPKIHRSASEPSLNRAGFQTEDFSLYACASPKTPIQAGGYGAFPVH
Sequence of B-Raf V600E (P15056 whole entry V600E): as the sequence (P15056 whole entry) above, with V600E counted along it
Sequence of c-Raf-1 (P04049 whole entry Y340D/Y341D, form open): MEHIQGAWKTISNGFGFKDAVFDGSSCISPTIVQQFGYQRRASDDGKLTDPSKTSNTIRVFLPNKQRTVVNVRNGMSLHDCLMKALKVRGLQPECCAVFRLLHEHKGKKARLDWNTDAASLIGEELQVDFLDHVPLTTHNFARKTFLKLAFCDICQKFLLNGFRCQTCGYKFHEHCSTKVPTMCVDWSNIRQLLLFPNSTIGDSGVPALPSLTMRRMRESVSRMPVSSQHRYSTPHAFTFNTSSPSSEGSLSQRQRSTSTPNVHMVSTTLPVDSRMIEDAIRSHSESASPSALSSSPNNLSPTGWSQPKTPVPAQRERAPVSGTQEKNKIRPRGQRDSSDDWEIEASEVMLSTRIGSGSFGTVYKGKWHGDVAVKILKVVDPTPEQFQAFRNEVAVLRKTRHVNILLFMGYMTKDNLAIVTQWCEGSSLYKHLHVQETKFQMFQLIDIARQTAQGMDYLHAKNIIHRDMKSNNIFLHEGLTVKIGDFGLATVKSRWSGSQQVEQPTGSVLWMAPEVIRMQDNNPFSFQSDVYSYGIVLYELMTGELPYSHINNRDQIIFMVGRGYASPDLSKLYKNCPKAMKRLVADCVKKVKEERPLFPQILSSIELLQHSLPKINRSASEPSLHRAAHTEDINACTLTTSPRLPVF

As a reminder, the IC50 is the concentration at which inhibition is half-maximal. Turning to `CCCS(=O)(=O)Nc1ccc(F)c(C(=O)c2c[nH]c3ncc(-c4cccc5[nH]ncc45)cc23)c1F` [P-0009, Propane-1-sulfonic acid {2,4-difluoro-3-[5-(1H-indazol-4-yl)-1H-pyrrolo[2,3-b]pyridine-3-carbonyl]-phenyl}-amide], the IC50 in assay [1], in assay [2], in assay [3] and in assay [4] was < 1 µM each time.
As for `CCCS(=O)(=O)Nc1ccc(F)c(C(=O)c2c[nH]c3ncc(-c4ccc5scnc5c4)cc23)c1F` [P-0013, Propane-1-sulfonic acid [3-(5-benzothiazol-5-yl-1H-pyrrolo[2,3-b]pyridine-3-carbonyl)-2,4-difluoro-phenyl]-amide], the IC50 in assay [1] was < 0.1 µM; in assay [2], < 0.1 µM; in assay [3] it was < 1 µM; in assay [4] it was < 0.1 µM.
For the molecule `CCCS(=O)(=O)Nc1ccc(F)c(C(=O)c2c[nH]c3ncc(-c4ccc5nccnc5c4)cc23)c1F` [P-0014, Propane-1-sulfonic acid [2,4-difluoro-3-(5-quinoxalin-6-yl-1H-pyrrolo[2,3-b]pyridine-3-carbonyl)-phenyl]-amide], the IC50 in assay [1] was < 0.1 µM; in assay [2], < 0.1 µM; in assay [3], < 1 µM; in assay [4] it was < 0.1 µM.
For the molecule `CCCS(=O)(=O)Nc1ccc(F)c(C(=O)c2c[nH]c3ncc(-c4cccc5[nH]ccc45)cc23)c1F` [P-0019, Propane-1-sulfonic acid {2,4-difluoro-3-[5-(1H-indol-4-yl)-1H-pyrrolo[2,3-b]pyridine-3-carbonyl]-phenyl}-amide], the IC50 was < 0.1 µM in assay [1], < 0.1 µM in assay [2], > 1 µM in assay [3] and < 0.1 µM in assay [4].
Consider `CCCS(=O)(=O)Nc1ccc(F)c(C(=O)c2c[nH]c3ncc(-c4cn5ccccc5n4)cc23)c1F` [P-0021, Propane-1-sulfonic acid [2,4-difluoro-3-(5-imidazo[1,2-a]pyridin-2-yl-1H-pyrrolo[2,3-b]pyridine-3-carbonyl)-phenyl]-amide], for which the IC50 is < 0.1 µM in assay [1], < 0.1 µM in assay [2], < 1 µM in assay [3] and < 0.1 µM in assay [4].
In the case of `CCCS(=O)(=O)Nc1ccc(F)c(C(=O)c2c[nH]c3ncc(-c4cn5ccc(C(F)(F)F)nc5n4)cc23)c1F` [P-0022, Propane-1-sulfonic acid {2,4-difluoro-3-[5-(7-trifluoromethyl-imidazo[1,2-a]pyrimidin-2-yl)-1H-pyrrolo[2,3-b]pyridine-3-carbonyl]-phenyl}-amide], the IC50 in assay [1] was < 0.1 µM; in assay [2], < 0.1 µM; in assay [3] it was > 1 µM; in assay [4] it was < 0.1 µM.
With `CCCS(=O)(=O)Nc1ccc(F)c(C(=O)c2c[nH]c3ncc(-c4ccc5[nH]nc(C)c5c4)cc23)c1F` [P-0024, Propane-1-sulfonic acid {2,4-difluoro-3-[5-(3-methyl-1H-indazol-5-yl)-1H-pyrrolo[2,3-b]pyridine-3-carbonyl]-phenyl}-amide], the half-inhibitory concentration (IC50) in assay [1] is < 0.1 µM; in assay [2] it was < 0.1 µM; in assay [3], < 1 µM; in assay [4], < 0.1 µM.
As to `CCCS(=O)(=O)Nc1ccc(F)c(C(=O)c2c[nH]c3ncc(-c4cnn(-c5ncccn5)c4)cc23)c1F` [P-1005, Propane-1-sulfonic acid {2,4-difluoro-3-[5-(1-pyrimidin-2-yl-1H-pyrazol-4-yl)-1H-pyrrolo[2,3-b]pyridine-3-carbonyl]-phenyl}-amide], the IC50 in assay [1] is < 0.1 µM; in assay [2], < 0.1 µM; in assay [3], < 1 µM; in assay [4], < 0.1 µM.
On to `CCCS(=O)(=O)Nc1ccc(F)c(C(=O)c2c[nH]c3ncc(-c4cnn(-c5nnn[nH]5)c4)cc23)c1F` [P-1008, Propane-1-sulfonic acid (2,4-difluoro-3-{5-[1-(1H-tetrazol-5-yl)-1H-pyrazol-4-yl]-1H-pyrrolo[2,3-b]pyridine-3-carbonyl}-phenyl)-amide], for which the half-inhibitory concentration (IC50) in assay [1] is < 0.1 µM; in assay [2], < 0.1 µM; in assay [3], > 1 µM; in assay [4] it was < 0.1 µM.
In the case of `CCCS(=O)(=O)Nc1ccc(F)c(C(=O)c2c[nH]c3ncc(-c4csc(-n5cnc(C)c5)n4)cc23)c1F` [P-1100, Propane-1-sulfonic acid (2,4-difluoro-3-{5-[2-(4-methyl-imidazol-1-yl)-thiazol-4-yl]-1H-pyrrolo[2,3-b]pyridine-3-carbonyl}-phenyl)-amide], the IC50 in assay [1] was < 0.1 µM; in assay [2], < 0.1 µM; in assay [3], < 1 µM; in assay [4] it was < 0.1 µM.
On to `CCCS(=O)(=O)Nc1ccc(F)c(C(=O)c2c[nH]c3ncc(-c4csc(N(C)C)n4)cc23)c1F` [P-1102, Propane-1-sulfonic acid {3-[5-(2-dimethylamino-thiazol-4-yl)-1H-pyrrolo[2,3-b]pyridine-3-carbonyl]-2,4-difluoro-phenyl}-amide], for which the 50% inhibitory concentration (IC50) in assay [1] was < 0.1 µM; in assay [2], < 0.1 µM; in assay [3], > 1 µM; in assay [4] it was < 0.1 µM.
